{"source": "patent US11339158B2", "about": "“Crystalline form of valbenazine ditosylate, processes for preparation thereof and use thereof” (Crystal Pharmaceutical (Suzhou) Co., Ltd., priority 2017, dated 2022)", "type_in_all_cases": "physicochemical", "key": {"[1]": {"assay": "Kinetic solubility in FaSSIF and FeSSIF", "conditions": "for Kinetic solubility (concentration of saturated solution): listed as Prior art Form I; for solubility kinetic at 15 min / solubility kinetic at 30 min / solubility kinetic at 1 h: thermodynamic from solid, read-out: Kinetic solubility (concentration of saturated solution)", "procedure": "High Performance Liquid Chromatography (HPLC) data in the present disclosure were collected from an Agilent 1260 with Diode Array Detector (DAD).\nThe HPLC method parameters for solubility test and dissolution tests in the present disclosure are as follows: • 1. Column: Waters XBridge C18 150×4.6 mm, 5 μm • 2. Mobile Phase: A: 0.1% TFA in H2O • B: 0.1% TFA in Acetonitrile\n• 3. Flow rate: 1.0 mL/min • 4. Injection Volume: 10 μL • 5. Detection wavelength: 230 nm • 6. Column Temperature: 40° C. • 7. Diluent: Acetonitrile: H2O (v:v)=50:50\nSimulated intestinal fluids, such as FaSSIF (fasted state simulated intestinal fluids) and FeSSIF (fed state simulated intestinal fluids) are biorelevant media. These media can better reflect the drug release affected by gastrointestinal environment. Solubility in such media is close to in vivo solubility.\n20 mg of Form A in the present disclosure and 20 mg of prior art Form I were suspended in 1.5 mL of FaSSIF and 1.5 mL of FeSSIF to get saturated solutions. After equilibrium for 15 minutes, 30 minutes and 1 hour, concentrations of the saturated solutions (mg/mL) were measured by HPLC."}, "[2]": {"assay": "Hygroscopicity (Chinese Pharmacopoeia 2015, general notice 9103)", "conditions": "for Percentage gain (weight gain, hygroscopicity): 25±1° C., relative humidity 80%±2%, 24 hours", "procedure": "The hygroscopicity experiment was conducted according to general notice 9103 drug hygroscopicity test guidelines in 2015 edition of Chinese Pharmacopoeia. The methods are listed as follows: • 1. A dry weighing bottle with a stopper (outer diameter is 50 mm and the height is 15 mm) was placed in a suitable desiccator at constant temperature of 25±1° C. (saturated solution of ammonium chloride or ammonium sulfate was placed in the lower compartment) or the a man-made climate chamber (the temperature is set as 25°±C. 1° C. and the relative humidity is 80%±2%) the day before the test. The weight is accurately weighed (m1). • 2. A suitable amount of the sample was spread into the weighing bottle. The thickness of the sample is generally about 1 mm, and the weight is accurately weighed (m2). • 3. The weighing bottle was kept open and placed under the same constant temperature and humidity mentioned above for 24 hours as well as the stopper. • 4. T The stopper was put on the weighing bottle, and then the weighing bottle with stopper was accurately weighed (m3).\nThe hygroscopicity of Form A in the present disclosure and Form I in prior art was tested."}, "[3]": {"assay": "Compressibility (tensile strength)", "conditions": "Φ6 mm round tooling, 80 mg, 10 kN; for Tensile strength (MPa): T=2H/πDL; for Diameter (mm) / Thickness (mm): after 24 h", "procedure": "A manual tablet press was used for compression. A certain amount of Form A and prior art Form I were added into the dies of round tooling (Ensuring the isotropy of the tablet), compressed at suitable pressure, and then stored at room temperature for 24 h until complete elastic recovery. Hardness (H) was tested with Intelligent Tablet Hardness Tester. Diameter (D) and thickness (L) were tested with caliper. Tensile strength of the powder was calculated with the following formula: T=2H/πDL. Under a certain force, the greater the tensile strength, the better the compressibility."}, "[4]": {"assay": "Flowability (compressibility index / Carr Index)", "conditions": "for Carr Index: c=(ρf−ρ0)/ρf; for Flowability: criteria of ICH Q4B Annex 13", "procedure": "Compressibility index or Carr Index is usually utilized to evaluate the flowability of powder and granules during the drug product process. Compressibility index test method is as follows: a certain amount of powder was added into a measuring cylinder and bulk volume was recorded. Then the powder was tapped to make it in the tightest state and the tapped volume was recorded. The bulk density (ρ0), tapped density (ρf) were calculated and compressibility index was calculated according to c=(ρf−ρ0)/ρf."}, "[5]": {"assay": "Adhesiveness (material sticking to the punch)", "conditions": "for Cumulative amount (mg) sticking to the punch / Maximum amount (mg) sticking to the punch: 30 mg, φ8 mm round tooling, 10 kN, 30 s, repeated compression", "procedure": "30 mg of Form A and Form I in prior art were added into the dies of φ8 mm round tooling, compressed at 10 kN and held for 30 s. The punch was weighed and amount of material sticking to the punch was calculated. The compression was repeated several times to record the cumulative amount, maximum amount and average amount of material sticking to the punch during compression process."}, "[6]": {"assay": "Stability of Form A drug substance (XRPD and HPLC)", "conditions": "for Change in solid form: XRPD; for Change in purity %: HPLC", "procedure": "Four samples of Form A in the present disclosure was stored under different conditions of 25° C./60% RH in open and closed dishes for 3 months, 40° C./75% RH in closed dish for 3 months and 60° C./75% RH in closed dish for 1 week. Crystalline form and chemical impurity were checked by XRPD and HPLC, respectively."}, "[7]": {"assay": "Mechanical stability (tableting at 15 kN, XRPD)", "conditions": "compressed at 15 kN, held 1 minute", "procedure": "About 0.1 g of Form A was added into a die, compressed at 15 kN, and held for 1 minute. And then the pressure was released and the sample in the die was taken out for XRPD test. […] The XRPD pattern is substantially as depicted in FIG. 9."}, "[8]": {"assay": "Crystalline form after formulation process (XRPD of capsule)", "conditions": "Form A in capsule", "procedure": "The preparation process is described in Table 8.\nThe crystalline form of Form A in capsule was tested by XRPD. […] The XRPD pattern is substantially as depicted in FIG. 10."}, "[9]": {"conditions": "25° C./60% RH in open dish, 3 months"}, "[10]": {"conditions": "40° C./75% RH in closed dish, 3 months"}, "[11]": {"conditions": "60° C./75% RH in closed dish, 1 week"}}, "note": "Entries after “also recorded” stand apart in the source; their conditions may differ. Where two headings read alike, the source gives them in different places."}
{"molecule": "COc1cc2c(cc1OC)[C@H]1C[C@@H](OC(=O)[C@@H](N)C(C)C)[C@H](CC(C)C)CN1CC2", "note": "[Form I, (S)-2-amino-3-methyl-butyric acid (2R,3R,11bR)-3-isobutyl-9,10-dimethoxy-1,3,4,6,7,11b-hexahydro-2H-pyrido[2,1-a]isoquinolin-2-yl ester, reference compound]", "values": [{"measurement": "Kinetic solubility (concentration of saturated solution)", "setting": "[1]; FaSSIF, 15 minutes", "value": 30.637, "unit": "mg/mL"}, {"measurement": "Kinetic solubility (concentration of saturated solution)", "setting": "[1]; FaSSIF, 30 minutes", "value": 30.189, "unit": "mg/mL"}, {"measurement": "Kinetic solubility (concentration of saturated solution)", "setting": "[1]; FaSSIF, 1 hour", "value": 31.010, "unit": "mg/mL"}, {"measurement": "Kinetic solubility (concentration of saturated solution)", "setting": "[1]; FeSSIF, 15 minutes", "value": 34.054, "unit": "mg/mL"}, {"measurement": "Kinetic solubility (concentration of saturated solution)", "setting": "[1]; FeSSIF, 30 minutes", "value": 34.628, "unit": "mg/mL"}, {"measurement": "Kinetic solubility (concentration of saturated solution)", "setting": "[1]; FeSSIF, 1 hour", "value": 35.012, "unit": "mg/mL"}, {"measurement": "Percentage gain (weight gain, hygroscopicity)", "setting": "[2]; listed as Form I in prior art", "value": 0.40, "unit": "%"}, {"measurement": "Percentage gain (weight gain, hygroscopicity)", "setting": "[2]; listed as prior art Form I", "value": 0.40, "unit": "%"}, {"measurement": "Tensile strength (MPa)", "setting": "[3]", "value": 0.86, "unit": "MPa"}, {"measurement": "Diameter (mm)", "setting": "[3]", "value": 6.04, "unit": "mm"}, {"measurement": "Thickness (mm)", "setting": "[3]", "value": 2.30, "unit": "mm"}, {"measurement": "Bulk density", "setting": "[4]", "value": 0.144, "unit": "g/mL"}, {"measurement": "Tap density", "setting": "[4]", "value": 0.174, "unit": "g/mL"}, {"measurement": "Carr Index", "setting": "[4]", "value": 17, "unit": "%"}, {"measurement": "Flowability", "setting": "[4]", "value": "Fair (16-20)"}, {"measurement": "Maximum amount sticking to the punch, Form I relative to Form A", "setting": "[5]", "value": "more than 3 times"}, {"measurement": "Cumulative amount (mg) sticking to the punch", "setting": "[5]", "value": 0.21, "unit": "mg"}, {"measurement": "Maximum amount (mg) sticking to the punch", "setting": "[5]", "value": 7.58, "unit": "mg"}]}
{"molecule": "COc1cc2c(cc1OC)[C@H]1C[C@@H](OC(=O)[C@@H](N)C(C)C)[C@H](CC(C)C)CN1CC2", "note": "[Form A, (S)-2-amino-3-methyl-butyric acid (2R,3R,11bR)-3-isobutyl-9,10-dimethoxy-1,3,4,6,7,11b-hexahydro-2H-pyrido[2,1-a]isoquinolin-2-yl ester]", "values": [{"measurement": "solubility kinetic at 15 min", "setting": "[1]; FaSSIF, FaSSIF, 15 minutes", "value": 31.4, "unit": "mg/mL"}, {"measurement": "solubility kinetic at 30 min", "setting": "[1]; FaSSIF, FaSSIF, 30 minutes", "value": 31.3, "unit": "mg/mL"}, {"measurement": "solubility kinetic at 1 h", "setting": "[1]; FaSSIF, FaSSIF, 1 hour", "value": 31.8, "unit": "mg/mL"}, {"measurement": "Solubility of Form A relative to prior art Form I", "setting": "[1]; FeSSIF", "value": 1.23, "unit": "times"}, {"measurement": "solubility kinetic at 15 min", "setting": "[1]; FeSSIF, FeSSIF, 15 minutes", "value": 41.9, "unit": "mg/mL"}, {"measurement": "solubility kinetic at 30 min", "setting": "[1]; FeSSIF, FeSSIF, 30 minutes", "value": 41.7, "unit": "mg/mL"}, {"measurement": "solubility kinetic at 1 h", "setting": "[1]; FeSSIF, FeSSIF, 1 hour", "value": 41.3, "unit": "mg/mL"}, {"measurement": "Hygroscopicity relative to prior art form", "setting": "[2]; Chinese Pharmacopoeia hygroscopicity test", "value": "3/5"}, {"measurement": "Time physically and chemically stable", "setting": "[6]; 25° C./60% RH in closed dish", "value": "at least 3 months"}, {"measurement": "Change in solid form", "setting": "[6]; 25° C./60% RH in closed dish, 3 months", "value": "doesn't change; also recorded: No form change"}, {"measurement": "Time physically and chemically stable", "setting": "[6]; 25° C./60% RH in open dish", "value": "at least 3 months"}, {"measurement": "Change in purity %", "setting": "[6]; [9]", "value": 0.03, "unit": "%"}, {"measurement": "Change in solid form", "setting": "[6]; [9]", "value": "doesn't change; also recorded: No form change"}, {"measurement": "Time physically and chemically stable", "setting": "[6]; 40° C./75% RH in closed dish", "value": "at least 3 months"}, {"measurement": "Change in purity %", "setting": "[6]; [10]", "value": 0.09, "unit": "%"}, {"measurement": "Change in solid form", "setting": "[6]; [10]", "value": "doesn't change; also recorded: No form change"}, {"measurement": "Time stable", "setting": "[6]; 60° C./75% RH in closed dish", "value": "at least 1 week"}, {"measurement": "Change in purity %", "setting": "[6]; [11]", "value": 0.08, "unit": "%"}, {"measurement": "Change in solid form", "setting": "[6]; [11]", "value": "doesn't change; also recorded: No form change"}, {"measurement": "Form change after tableting", "setting": "[7]", "value": "doesn't change; also recorded: no form change is observed"}, {"measurement": "Form change of Form A after formulation process", "setting": "[8]", "value": "no form change was observed; also recorded: doesn't change"}, {"measurement": "Tensile strength (MPa)", "setting": "[3]", "value": 1.36, "unit": "MPa"}, {"measurement": "Diameter (mm)", "setting": "[3]", "value": 6.11, "unit": "mm"}, {"measurement": "Thickness (mm)", "setting": "[3]", "value": 2.33, "unit": "mm"}, {"measurement": "Bulk density", "setting": "[4]", "value": 0.179, "unit": "g/mL"}, {"measurement": "Tap density", "setting": "[4]", "value": 0.209, "unit": "g/mL"}, {"measurement": "Carr Index", "setting": "[4]", "value": 14, "unit": "%"}, {"measurement": "Flowability", "setting": "[4]", "value": "Good (11-15)"}, {"measurement": "Cumulative amount (mg) sticking to the punch", "setting": "[5]", "value": 0.06, "unit": "mg"}, {"measurement": "Maximum amount (mg) sticking to the punch", "setting": "[5]", "value": 0.17, "unit": "mg"}]}
